Experimental data: patent US20080187512A1, “Treatment for spinal muscular atrophy” (Academia Sinica, priority 2007, published 2008)

Columns and labels:
Assay type in all cases: cell-based, mouse
[1] = tested on: P38 (pT180/pY182); test: Signaling pathway screen in SMN2-NSC34 cells
[2] = tested on: Stat6 (pT641); test: Signaling pathway screen in SMN2-NSC34 cells
[3] = tested on: Stat3 (pY705); test: Signaling pathway screen in SMN2-NSC34 cells
[4] = tested on: Stat2 (pY705); test: Signaling pathway screen in SMN2-NSC34 cells
[5] = tested on: Stat1 (pY701); test: Signaling pathway screen in SMN2-NSC34 cells
[6] = tested on: Stat5 (pT694); test: Signaling pathway screen in SMN2-NSC34 cells; design: Stat5 (pT694) cellular response: key: −: decreasing; +/−: no activation; +: slight activation; ++: minor activation; +++: significant activation; conditions: SMN2-NSC34 cells; for phosphorylation level of Stat5 increased compared to control cells: treatment for 4 hours, α-tubulin internal control
Method: (§1) Western blot analysis. Cells treated by dsRNA, compounds or Stat5A1*6 transfected were detached by scraping, pelletting and rinsing in PBS. Cell pellets were collected after centrifugation and lysed on ice in modified RIPA buffer (50 mM Tris-HCl (pH7.4), 1% NP-40, 0.25% deoxycholic acid, 0.15M NaCl, 1 mM EDTA, 1 mM PMSF/NaF/sodium orthovanadate, and protease inhibitors cocktail (Roche, Mannheim, Germany) for 30 min. After centrifugation, the supernatants were collected and kept frozen at −20° C. Protein concentrations were determined by Bio-Rad protein assay method. For Western blot analysis, protein samples were boiled for 5 min and electrophoresed on 8% or 10% SDS-polyacrylamide gel in a 1× running buffer (25 mM Tris, 192 mM glycine, 3.4 mM SDS, pH 8.3) and subsequently electrotransferred to Polyvinylidene Fluoride tansfer membrane (Pall, Pensacola, Fla.) using a TE 22 mini-tank transfer unit (Amersham Biosciences, San Francisco, Calif.) at 35 volts overnight in transfer buffer (25 mM Tris, 192 mM glycine, 20% methanol, pH8.3). The blotting membranes were incubated in blocking solution (PBS, 5% non-fat milk, 0.2% Tween-20) for 1 hour at room temperature, and then incubated in the same solution with the primary antibody (human-specific SMN/1:1000; SMN/1:5000, Transduction Laboratories, Lexington, Ky.; phospho-Stat5a/b/1:1000, Cell signaling, Beverly, Mass.; phospho-Jak2/1:1000, Upstate, Lake Placid, N.Y.; Flag BioM2/1:1000, Sigma, St. Louis, MO; c-myc/1:200, Santa Cruz Biotech, Santa Cruz, Calif.; α-Tubilin/1:10000, Upstate, Lake Placid, N.Y., MO), overnight at 4° C. The membranes were washed and incubated in the blocking solution with the proper HRP-conjugated secondary antibody at 1/5000 dilution (Chemicon, Temecula, Calif.) for 1 hour at room temperature. After washing three times in PBS containing 0.1% Tween-20, the signals were visualized by autoradiography (Fuji Medical X-ray film, Fuji Photos, Tokyo) using enhanced chemi-luminescence (ECL detection system; Perkin-Elmer, Boston, Calif.). Western blot quantification was performed by scanning the auto-radiographs with a computerized densitometer. Signal intensities were determined by densitometry analysis (Fuji film LAS-1000 plus pictography) using the program Phoreticx 1D (Phoreticx International).
(§2) Therefore, TSA, aclarubicin and sodium vanadate all induce the activation of Stat5A in motor neuron-like NSC34 cells.

[7] = tested on: SMN2; test: SMN2 splicing pattern, semi-quantitative RT-PCR in SMA-like MEFs; design: key to SMN2 splicing pattern MEF: −: no effect; +: effective; +++: most effective; conditions: SMA-like MEFs; for SMN2 splicing pattern MEF: TSA 10 nM, sodium butyrate 25 mM, aclarubicin 80 nM, sodium vanadate 50 μM; for influence on SMN2 expression: time-course RT-PCR
[8] = tested on: Jak2 (pY1007/pY1008); test: Signaling pathway screen in SMN2-NSC34 cells; conditions: for Jak2 activation: 2-4 hours after treatment; for Jak2 (pY1007/pY1008) cellular response: SMN2-NSC34 cells; as to Jak2 (pY1007/pY1008) cellular response: key: −: decreasing; +/−: no activation; +: slight activation; ++: minor activation; +++: significant activation
Method: as §1, §2

[9] = tested on: ERK1/2 (pT202/pY204); test: Signaling pathway screen in SMN2-NSC34 cells
[10] = tested on: SMN2; test: SMN2 splicing pattern, semi-quantitative RT-PCR in SMN2-NSC34 cells; design: key to SMN2 splicing pattern SMN2-NSC34: −: no effect; +: effective; +++: most effective; conditions: SMN2-NSC34 cells; TSA 10 nM, sodium butyrate 25 mM, aclarubicin 80 nM, sodium vanadate 100 μM
Method: Cell culture and chemical/dsRNA treatment. Mouse embryonic fibroblasts (MEFs) were prepared using the standard protocol. Briefly, E13.5 day embryo was isolated; the uterine deciduas were cut away, and the yolk sac was removed. The embryo was then scraped out to remove non-fibroblastic tissue, and the head severed for genotyping. Embryo body was minced in 0.25% Trypsin-EDTA and incubated for 30 min. It was then added to MEF culture media, and the cell suspension spun for ˜5 min at 1,000 rpm in the tissue culture centrifuge to pellet cells. The supernatant was aspirated off and the cell pellet immediately resuspended in 10 mL of fresh MEF culture media. The MEFs were allowed to reach confluency so the cells could be passaged for further experiments. Cultured MEFs and SMN2-NSC34 cells were maintained in Dulbecco's modified Eagle medium (Invitrogen, Carlsbad, Calif.) containing 10% heat-inactivated fetal bovine serum (Hyclone, Logan, Utah) and 1% penicillin-streptomycin (Invitrogen, Carlsbad, Calif.) and were incubated at 37° C. in a 5% CO2 humidified atmosphere. The cells were plated the day preceding treatment with each chemical and harvested at the indicated time.
Semi-quantitative PCR/RT-PCR. The genomic DNA from E13.5 SMA embryos was extracted. A specific primer pair, SMN forward 5′-[…]-3′ (SEQ ID NO:21) and SMN backward 5′-[…]-3′ (SEQ ID NO:22), was designed for recognition of both murine Smn and human SMN2. The PCR program initially started with a 95° C. denaturation for 10 min, followed by 19 to 26 cycles of 95° C./1 min. 53° C./1.5 min, 72° C./2 min to assay the linear range for both Smn and SMN2. For RT-PCR assay, total RNA was extracted at indicated time points from SMN2-NSC34 cells with sodium vanadate, TSA, and aclarubicin treatment or with an increasing amount of Stat5A1*6 transfection by using the TRizol reagent (Invitrogen, Carlsbad, Calif.). To amplify the exon7 inclusion/exclusion form of SMN2 transcripts, RT-PCR were performed using a primer set P5P6 as previously described (15). The transcript from the mouse glyceraldehyde-3-phosphate dehydrogenase (Gapdh) gene or the β-Actin gene was amplified using the primer pairs: Gapdh forward: 5′-[…]-3′ (SEQ ID NO:23), and backward: 5′-[…]-3′ (SEQ ID NO:24) (56° C.), and β-Actin forward: 5′-[…]-3′ (SEQ ID NO:25), and backward 5′-[…]-3′ (SEQ ID NO:26) (59° C.), and this allowed control of equal amounts of template. […] The gel images were digitally captured with a CCD camera and analyzed with the Alphalmager™. […] Relative total SMN2 transcript levels were determined from Stat5A1*6 transfected SMN2-NSC34 cells in a minimum of three independent experiments. Differences in ratios were determined to be significant by an independent two-tailed t-test, with *, P<0.05, **, P<0.005, ***, p<0.001.

[11] = tested on: JNK (pT183/pY185); test: Signaling pathway screen in SMN2-NSC34 cells

## CC[C@@]1(O)C[C@H](O[C@H]2C[C@H](N(C)C)[C@H](O[C@H]3C[C@H](O)[C@H](O[C@H]4CCC(=O)[C@H](C)O4)[C@H](C)O3)[C@H](C)O2)c2c(cc3c(c2O)C(=O)c2c(O)cccc2C3=O)[C@H]1C(=O)OC [Aclarubicin]
[1]; 4 hrs
  P38 (pT180/pY182) cellular response: +/−
[1]; 8 hrs
  P38 (pT180/pY182) cellular response: +/−
[2]; 4 hrs
  Stat6 (pT641) cellular response: +/−
[2]; 8 hrs
  Stat6 (pT641) cellular response: −
[3]; 4 hrs
  Stat3 (pY705) cellular response: +
[3]; 8 hrs
  Stat3 (pY705) cellular response: ++
[4]; 4 hrs
  Stat2 (pY705) cellular response: +
[4]; 8 hrs
  Stat2 (pY705) cellular response: +/−
[5]; 4 hrs
  Stat1 (pY701) cellular response: +/−
[5]; 8 hrs
  Stat1 (pY701) cellular response: +/−
[6]; 4 hrs
  Stat5 (pT694) cellular response: ++
[6]
  Stat5 phosphorylation status at 8 hours: remained activated
  phosphorylation level of Stat5 increased compared to control cells: about 2 fold
[6]; 8 hrs
  Stat5 (pT694) cellular response: +++
[7]
  SMN2 splicing pattern MEF: +
  influence on SMN2 expression: found to influence SMN2 expression
[8]
  Jak2 activation: found activated
[8]; 4 hrs
  Jak2 (pY1007/pY1008) cellular response: +
[8]; 8 hrs
  Jak2 (pY1007/pY1008) cellular response: +/−
[9]; 4 hrs
  ERK1/2 (pT202/pY204) cellular response: +/−
[9]; 8 hrs
  ERK1/2 (pT202/pY204) cellular response: +/−

## CC1=C(/C=C/C(C)=C/C=C/C(C)=C/C(=O)O)C(C)(C)CCC1 [All-trans retinoic acid]
[7]
  SMN2 splicing pattern MEF: −

## NC(=O)NO [Hydroxyurea]
[7]
  SMN2 splicing pattern MEF: −

## CC(=O)N[C@@H](CS)C(=O)O [N-Acetyl-L-cysteine]
[7]
  SMN2 splicing pattern MEF: −

## CCCCCCCCCCCCCC(=O)O[C@@H]1[C@@H](C)[C@@]2(O)[C@@H](C=C(CO)C[C@]3(O)C(=O)C(C)=C[C@@H]23)[C@@H]2C(C)(C)[C@]12OC(C)=O [Phorbol-12-myristate-13-acetate]
[7]
  SMN2 splicing pattern MEF: −

## CCCC(=O)[O-].[Na+] [Sodium butyrate]
[7]
  SMN2 splicing pattern MEF: +
[10]
  SMN2 splicing pattern SMN2-NSC34: +

## CC(/C=C/C(=O)NO)=C\[C@@H](C)C(=O)c1ccc(N(C)C)cc1 [Trichostatin A (TSA), Trichostatin A]
[1]; 4 hrs
  P38 (pT180/pY182) cellular response: +/−
[1]; 8 hrs
  P38 (pT180/pY182) cellular response: +
[2]; 4 hrs
  Stat6 (pT641) cellular response: +/−
[2]; 8 hrs
  Stat6 (pT641) cellular response: −
[3]; 4 hrs
  Stat3 (pY705) cellular response: +
[3]; 8 hrs
  Stat3 (pY705) cellular response: ++
[4]; 4 hrs
  Stat2 (pY705) cellular response: +/−
[4]; 8 hrs
  Stat2 (pY705) cellular response: +/−
[5]; 4 hrs
  Stat1 (pY701) cellular response: −
[5]; 8 hrs
  Stat1 (pY701) cellular response: −
[6]; 4 hrs
  Stat5 (pT694) cellular response: ++
[6]
  Stat5 phosphorylation status at 8 hours: remained activated
  phosphorylation level of Stat5 increased compared to control cells: about 2 fold
[6]; 8 hrs
  Stat5 (pT694) cellular response: +++
[7]
  SMN2 splicing pattern MEF: +
  influence on SMN2 expression: found to influence SMN2 expression
[8]
  Jak2 activation: found activated
[8]; 4 hrs
  Jak2 (pY1007/pY1008) cellular response: +
[8]; 8 hrs
  Jak2 (pY1007/pY1008) cellular response: +/−
[11]; 4 hrs
  JNK (pT183/pY185) cellular response: +/−
[11]; 8 hrs
  JNK (pT183/pY185) cellular response: +
[9]; 4 hrs
  ERK1/2 (pT202/pY204) cellular response: +
[9]; 8 hrs
  ERK1/2 (pT202/pY204) cellular response: +
